Assay results from US8158605B2, “Azacytidine analogues and uses thereof” (Mount Sinai School of Medicine, priority 2007, dated 2012).

Assays:
cell cycle = test: Cell cycle analysis of DNA contents by flow cytometry; assay type: cell-based
Procedure: Cells were pelleted by centrifugation, and washed twice with PBS, fixed with 70% (v/v) cold ethanol (−20° C.), and stored at 4° C. for at least 24 hours. The cells were washed in PBS. Cell pellets were stained with PI/RNase staining solution. The cell suspension was incubated in the dark at room temperature for 30 min. DNA content was determined using a FACSCalibur flow cytometry (Becton Dickinson, Mount View, Calif.). Percentages of cells in Sub-G1, G1, S and G2/M stages of the cell cycle were determined with DNA histogram-fitting program (Becton Dickinson). A minimum of 10,000 events per sample was recorded.
Cells were cultured for the indicated lengths of time before being processed for analyses of DNA contents by flow cytometry. Numerical values in a panel represent gated cell population with sub-G1 DNA contents. The most significant changes were observed after 24 hours of treatment.

[1] = Metabolic stability in pooled human plasma at 37° C.; assay type: in vitro ADME
Procedure: The mixture was incubated in a shaking water batch at 37° C. Aliquots (100 μl) of the incubation solutions were withdrawn in triplicate (n=3) at the designed incubation period (0, 15, 30, 60 and 120 minutes), and plasma protein was immediately precipitated using acetonitrile containing 0.1% formic acid (300 μl). […] After centrifugation, the supernatant was directly introduced for LC-MS-MS analysis.

[2] = system: HL60, K562, and U937 cells; test: Apoptosis induction in leukemia cells (AO/EB microscopy, Annexin-V/PI flow cytometry); assay type: cell-based, human; conditions: 0.5-4 μM, 24 hours; AO/EB staining and Annexin-V/PI flow cytometry
Procedure: Apoptotic cells were defined using morphological criteria and fluorescence-activated cell sorting (FACS) after staining with Annexin V-FITC. For morphologic analysis, 1 μl of stock solution containing 100 μg/ml AO and 100 μg/ml EB was added to 25 μl cells suspension. The apoptitic cells and apoptotic bodies were analyzed with the aid of a fluorescence microscopy. The percentage of apoptotic cells was calculated after counting total 300 cells. For FACS analysis, […] to 5×10^6 cells were washed with PBS and then labeled with Annexin V-FICS and propidium iodide (PI) in medium-binding reagent according to the Annexin V-FITC apoptosis detection kit instruction provided by the manufacturer. Fluorescent signals of FITC and PI were detected, respectively, at 518 nm and at 620 nm on FACSCAN (Becton Dickinson, San Jose, Calif.). […] The data was analyzed by the CellQuest program (Becton Dickinson). For each analysis, 10,000 cells events were recorded.
The percentage of apoptotic cells was determined with the aid of a fluoresence microscope after staining with acridine orange and ethidium bromide (See FIG. 2A). […] The percentage of apoptotic cells was determined by flow cytometry using Annexin-V and PI staining. […] (See FIGS. 2a and 2b)

CCCCCCCC/C=C/CCCCCCCC(=O)OC[C@H]1O[C@@H](n2cnc(N)nc2=O)[C@H](O)[C@@H]1O [CP, 5-azacytidine 5′-elaidate]
% cell G1 (cell cycle; 24 hour, dose 0.5 μM): 43.66%
% cell G2/M (cell cycle; 24 hour, dose 0.5 μM): 11.05%
% cell S (cell cycle; 24 hour, dose 0.5 μM): 28.15%
% cell Sub G1 (cell cycle; 24 hour, dose 0.5 μM): 9.41%
% cell G1 (cell cycle; 24 hour, dose 1 μM): 36.17%
% cell G2/M (cell cycle; 24 hour, dose 1 μM): 8.82%
% cell S (cell cycle; 24 hour, dose 1 μM): 18.98%
% cell Sub G1 (cell cycle; 24 hour, dose 1 μM): 21.02%
% cell G1 (cell cycle; 24 hour, dose 2 μM): 23.45%
% cell G2/M (cell cycle; 24 hour, dose 2 μM): 2.64%
% cell S (cell cycle; 24 hour, dose 2 μM): 9.14%
% cell Sub G1 (cell cycle; 24 hour, dose 2 μM, listed as 5-azacytidine 5′-elaidate): 33.6%
% cell Sub G1 (cell cycle; 24 hour, dose 2 μM, listed as cp): 33.59%
% cell G1 (cell cycle; 48 hour, dose 0.5 μM): 34.79%
% cell G2/M (cell cycle; 48 hour, dose 0.5 μM): 2.53%
% cell S (cell cycle; 48 hour, dose 0.5 μM): 42.96%
% cell Sub G1 (cell cycle; 48 hour, dose 0.5 μM): 15.14%
% cell G1 (cell cycle; 48 hour, dose 1 μM): 28.07%
% cell G2/M (cell cycle; 48 hour, dose 1 μM): 17.91%
% cell S (cell cycle; 48 hour, dose 1 μM): 30.06%
% cell Sub G1 (cell cycle; 48 hour, dose 1 μM): 14.34%
% cell G1 (cell cycle; 48 hour, dose 2 μM): 22.51%
% cell G2/M (cell cycle; 48 hour, dose 2 μM): 7.78%
% cell S (cell cycle; 48 hour, dose 2 μM): 15.62%
% cell Sub G1 (cell cycle; 48 hour, dose 2 μM): 24.34%
% cell G1 (cell cycle; 72 hour, dose 0.5 μM): 38.72%
% cell G2/M (cell cycle; 72 hour, dose 0.5 μM): 18.82%
% cell S (cell cycle; 72 hour, dose 0.5 μM): 29.18%
% cell Sub G1 (cell cycle; 72 hour, dose 0.5 μM): 10.54%
% cell G1 (cell cycle; 72 hour, dose 1 μM): 40.67%
% cell G2/M (cell cycle; 72 hour, dose 1 μM): 18.26%
% cell S (cell cycle; 72 hour, dose 1 μM): 28.77%
% cell Sub G1 (cell cycle; 72 hour, dose 1 μM): 10.75%
half-life at 0.1 μM ([1]; 0.1 μM): 161 min
% Remaining of initial (mean ± SD, n = 3) ([1]; 0.1 μM, 0 min): 100%
% Remaining of initial (mean ± SD, n = 3) ([1]; 0.1 μM, 15 min): 95.8 ± 3.0%
% Remaining of initial (mean ± SD, n = 3) ([1]; 0.1 μM, 30 min): 95.0 ± 2.0%
% Remaining of initial (mean ± SD, n = 3) ([1]; 0.1 μM, 60 min): 92.1 ± 3.4%
% Remaining of initial (mean ± SD, n = 3) ([1]; 0.1 μM, 120 min): 59.0 ± 1.6%
half-life at 1 μM ([1]; 1 μM): 130 min
% Remaining of initial (mean ± SD, n = 3) ([1]; 1 μM, 0 min): 100%
% Remaining of initial (mean ± SD, n = 3) ([1]; 1 μM, 15 min): 93.3 ± 1.1%
% Remaining of initial (mean ± SD, n = 3) ([1]; 1 μM, 30 min): 88.9 ± 1.1%
% Remaining of initial (mean ± SD, n = 3) ([1]; 1 μM, 60 min): 79.8 ± 2.6%
% Remaining of initial (mean ± SD, n = 3) ([1]; 1 μM, 120 min): 52.5 ± 3.1%
half-life at 3 μM ([1]; 3 μM): 141 min
% Remaining of initial (mean ± SD, n = 3) ([1]; 3 μM, 0 min): 100%
% Remaining of initial (mean ± SD, n = 3) ([1]; 3 μM, 15 min): 99.0 ± 3.5%
% Remaining of initial (mean ± SD, n = 3) ([1]; 3 μM, 30 min): 96.0 ± 3.0%
% Remaining of initial (mean ± SD, n = 3) ([1]; 3 μM, 60 min): 85.4 ± 3.4%
% Remaining of initial (mean ± SD, n = 3) ([1]; 3 μM, 120 min): 56.6 ± 1.6%
half-life at 10 μM ([1]; 10 μM): 86 min
% Remaining of initial (mean ± SD, n = 3) ([1]; 10 μM, 0 min): 100%
% Remaining of initial (mean ± SD, n = 3) ([1]; 10 μM, 15 min): 96.0 ± 2.0%
% Remaining of initial (mean ± SD, n = 3) ([1]; 10 μM, 30 min): 93.1 ± 0.0%
% Remaining of initial (mean ± SD, n = 3) ([1]; 10 μM, 60 min): 77.1 ± 3.1%
% Remaining of initial (mean ± SD, n = 3) ([1]; 10 μM, 120 min): 39.1 ± 1.7%
half-life at 30 μM ([1]; 30 μM): 109 min
% Remaining of initial (mean ± SD, n = 3) ([1]; 30 μM, 0 min): 100%
% Remaining of initial (mean ± SD, n = 3) ([1]; 30 μM, 15 min): 97.7 ± 3.5%
% Remaining of initial (mean ± SD, n = 3) ([1]; 30 μM, 30 min): 90.4 ± 2.6%
% Remaining of initial (mean ± SD, n = 3) ([1]; 30 μM, 60 min): 78.5 ± 1.7%
% Remaining of initial (mean ± SD, n = 3) ([1]; 30 μM, 120 min): 47.4 ± 1.1%
number of apoptotic cells [2]: concentration-dependent increase in the number of apoptotic cells
